Data taken from ChEMBL document CHEMBL1201862, “PubChem BioAssay data set” (2004).
Activity calls are given as the source filed them.

Columns and labels:
[1] = Luminescence-based cell-based high throughput dose response assay to identify activators of the DAF-12 from the parasite S. stercoralis (ssDAF-12).; format: functional
[2] = biological target: T1, Oxysterols receptor LXR-beta (Homo sapiens, UniProt P55055); assay: LXR agonists, Gal4 luciferase reporter, dose response, counter-screen for ssDAF-12 agonist project, cell-based, luminescence, HEK293, S. stercoralis campaign (AID 720737); format: functional; conditions: read-out: IC50 (the source's name)
T1 sequence (P55055 whole entry): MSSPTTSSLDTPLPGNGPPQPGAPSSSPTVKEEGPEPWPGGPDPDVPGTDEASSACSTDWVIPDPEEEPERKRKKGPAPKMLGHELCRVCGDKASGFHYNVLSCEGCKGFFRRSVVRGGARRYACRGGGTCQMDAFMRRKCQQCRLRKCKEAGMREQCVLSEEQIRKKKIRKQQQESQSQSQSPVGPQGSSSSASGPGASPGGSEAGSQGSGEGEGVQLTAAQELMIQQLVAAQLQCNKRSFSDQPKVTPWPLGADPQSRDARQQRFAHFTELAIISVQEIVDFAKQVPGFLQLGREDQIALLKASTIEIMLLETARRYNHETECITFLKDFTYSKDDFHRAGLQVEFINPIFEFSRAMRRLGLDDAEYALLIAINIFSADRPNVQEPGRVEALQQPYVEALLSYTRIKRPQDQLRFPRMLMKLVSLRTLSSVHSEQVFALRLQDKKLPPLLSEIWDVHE

[3] = biological target: T2, Bcl-2-related protein A1 (Mus musculus, UniProt Q07440); assay: Bfl-1 inhibitors blocking BH3 peptide binding, confirmation, biochemical, TR-FRET, mouse Bfl-1 (AID 621);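 further: TR-FRET binding of GST-Bfl-1 to FITC-labelled Bid peptide via terbium antibody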
T2 sequence (Q07440 whole entry): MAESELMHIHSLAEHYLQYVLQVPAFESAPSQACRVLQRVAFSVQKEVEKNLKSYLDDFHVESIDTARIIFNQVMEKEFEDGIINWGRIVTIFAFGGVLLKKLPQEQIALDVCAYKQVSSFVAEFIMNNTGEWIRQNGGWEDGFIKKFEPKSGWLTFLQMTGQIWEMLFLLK

[4] = biological target: T2, Bcl-2-related protein A1; assay: Bfl-1 binding inhibitors, SAR follow-up, biochemical, fluorescence polarization (AID 1070)
[5] = biological target: T3, Caspase-6 (Homo sapiens, UniProt P55212); assay: human caspase-6 inhibitors, dose response, biochemical, VEID-R110 fluorescence, cherry-pick (AID 720632)
T3 sequence (P55212 whole entry): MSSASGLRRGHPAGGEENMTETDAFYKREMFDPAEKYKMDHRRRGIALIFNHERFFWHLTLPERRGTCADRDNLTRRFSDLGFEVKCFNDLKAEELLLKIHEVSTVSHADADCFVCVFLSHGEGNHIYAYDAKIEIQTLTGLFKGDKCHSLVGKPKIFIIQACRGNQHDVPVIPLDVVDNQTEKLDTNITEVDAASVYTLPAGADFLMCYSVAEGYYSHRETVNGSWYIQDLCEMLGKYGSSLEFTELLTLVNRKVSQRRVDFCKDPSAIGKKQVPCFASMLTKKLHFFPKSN

[6] = biological target: T4, Histone-lysine N-methyltransferase NSD2 (Homo sapiens, UniProt O96028); format: biochemical
T4 sequence (O96028 whole entry): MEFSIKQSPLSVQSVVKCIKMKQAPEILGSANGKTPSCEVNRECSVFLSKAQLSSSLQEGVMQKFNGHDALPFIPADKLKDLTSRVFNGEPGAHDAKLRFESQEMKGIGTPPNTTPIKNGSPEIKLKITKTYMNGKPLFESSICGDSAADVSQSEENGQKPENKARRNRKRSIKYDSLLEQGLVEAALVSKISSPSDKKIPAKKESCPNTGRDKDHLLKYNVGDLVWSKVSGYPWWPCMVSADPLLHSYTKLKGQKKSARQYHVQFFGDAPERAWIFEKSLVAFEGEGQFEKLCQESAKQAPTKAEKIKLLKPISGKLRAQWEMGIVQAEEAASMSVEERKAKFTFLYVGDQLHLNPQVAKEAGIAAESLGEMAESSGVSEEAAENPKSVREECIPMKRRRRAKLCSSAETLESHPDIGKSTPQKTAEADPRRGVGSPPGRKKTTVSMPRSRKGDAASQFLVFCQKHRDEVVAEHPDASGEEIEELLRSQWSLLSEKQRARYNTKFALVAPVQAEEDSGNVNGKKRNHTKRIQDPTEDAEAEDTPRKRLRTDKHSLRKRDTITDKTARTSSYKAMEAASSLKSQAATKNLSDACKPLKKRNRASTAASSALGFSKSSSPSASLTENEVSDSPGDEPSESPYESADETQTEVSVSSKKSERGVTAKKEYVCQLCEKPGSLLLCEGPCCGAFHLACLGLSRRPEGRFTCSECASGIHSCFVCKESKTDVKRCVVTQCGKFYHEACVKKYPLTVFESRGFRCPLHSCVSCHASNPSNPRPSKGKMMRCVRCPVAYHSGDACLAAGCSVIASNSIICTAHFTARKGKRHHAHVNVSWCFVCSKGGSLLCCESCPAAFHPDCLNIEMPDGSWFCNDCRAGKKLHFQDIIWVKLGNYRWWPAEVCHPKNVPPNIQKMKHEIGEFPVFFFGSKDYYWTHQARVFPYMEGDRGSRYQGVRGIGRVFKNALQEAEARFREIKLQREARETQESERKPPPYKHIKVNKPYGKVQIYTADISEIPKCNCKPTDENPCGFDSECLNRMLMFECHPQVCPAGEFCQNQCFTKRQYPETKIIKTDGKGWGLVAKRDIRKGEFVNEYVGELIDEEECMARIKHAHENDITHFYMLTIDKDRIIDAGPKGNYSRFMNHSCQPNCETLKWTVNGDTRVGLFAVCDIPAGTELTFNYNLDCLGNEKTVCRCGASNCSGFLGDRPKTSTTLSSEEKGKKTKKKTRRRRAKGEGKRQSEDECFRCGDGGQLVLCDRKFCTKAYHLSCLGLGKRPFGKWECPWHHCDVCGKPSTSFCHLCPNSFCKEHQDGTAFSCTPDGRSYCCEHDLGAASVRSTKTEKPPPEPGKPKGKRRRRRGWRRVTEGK

[7] = biological target: Cytochrome P450 2C9 (Homo sapiens, UniProt P11712)
[8] = biological target: Cytochrome P450 2C19 (Homo sapiens, UniProt P33261); assay: Cytochrome panel assay with activity outcomes. Panel member name: p450-cyp2c19 Compounds with AC50 equal or less than 10 uM are considered active; format: functional; conditions: read-out: AC50
[9] = biological target: T5, Galanin receptor type 3 (Homo sapiens, UniProt O60755); assay: Fluorescence-based cell-based primary high throughput dose response assay to identify antagonists of the Galanin Receptor 3 (GalR3).; format: functional
T5 sequence (O60755 whole entry): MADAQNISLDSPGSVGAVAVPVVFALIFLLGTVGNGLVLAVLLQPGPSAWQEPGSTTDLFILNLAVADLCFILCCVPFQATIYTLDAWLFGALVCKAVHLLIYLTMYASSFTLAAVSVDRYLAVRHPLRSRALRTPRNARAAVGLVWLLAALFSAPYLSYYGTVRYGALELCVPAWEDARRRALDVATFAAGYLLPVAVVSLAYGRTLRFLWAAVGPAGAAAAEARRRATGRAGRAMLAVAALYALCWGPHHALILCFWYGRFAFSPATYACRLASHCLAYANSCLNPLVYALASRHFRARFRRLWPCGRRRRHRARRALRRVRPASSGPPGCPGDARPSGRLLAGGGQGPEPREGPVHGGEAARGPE

[10] = cells; format: functional, cell-based; conditions: HEK-CNG
[11] = biological target: T6, COUP transcription factor 2 (Homo sapiens, UniProt P24468); assay: Luminescence-based cell-based high throughput dose response assay to identify inhibitors of COUP-TFII (NR2F2).; format: functional;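 further: HEK293 cells transiently cotransfected with COUP-TFII expression vector and reporter; luciferase reporter luminescence driven by COUP-TFII from the pX2-168 reporter plasmid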
T6 sequence (P24468 whole entry): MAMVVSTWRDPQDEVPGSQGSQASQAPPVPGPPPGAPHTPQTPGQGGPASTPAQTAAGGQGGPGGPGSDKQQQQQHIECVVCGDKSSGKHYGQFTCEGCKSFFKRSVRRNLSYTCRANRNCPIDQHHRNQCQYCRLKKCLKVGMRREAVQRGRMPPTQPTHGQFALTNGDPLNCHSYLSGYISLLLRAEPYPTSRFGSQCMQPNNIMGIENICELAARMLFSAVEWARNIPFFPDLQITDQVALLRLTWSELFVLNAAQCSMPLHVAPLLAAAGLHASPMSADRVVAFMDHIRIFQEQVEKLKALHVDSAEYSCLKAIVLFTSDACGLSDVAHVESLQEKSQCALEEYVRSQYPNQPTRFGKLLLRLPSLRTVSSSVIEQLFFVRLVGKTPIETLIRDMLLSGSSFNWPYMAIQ

[12] = tested on: INS1; assay: beta cell apoptosis inhibitors, cytokine rescue, dose response, luminescence, retest (AID 449756); format: functional, cell-based; conditions: Rattus norvegicus;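 further: cell death triggered by IL-1 beta plus TNF-alpha plus IFN-gamma mixture; protective hits raise ATP signal compared with cytokine alone wells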
[13] = biological target: Photoreceptor-specific nuclear receptor (Homo sapiens, UniProt Q9Y5X4); assay: NR2E3 inverse agonists, dose response, biochemical, TR-FRET (AID 463256); format: functional
[14] = biological target: Peroxisome proliferator-activated receptor gamma/Nuclear receptor corepressor 2 (Homo sapiens, UniProt P37231+Q9Y618); assay: Counterscreen for NR2E3 inverse agonists: TR-FRET-based biochemical high throughput dose response assay to identify inverse agonists of the interaction between peroxisome proliferator-activated receptor gamma (PPARg) and nuclear receptor co-repressor 2 (NCOR2).; format: functional
[15] = Shn3 3'UTR reporter inhibitors, dose response, cell-based, Clone20 osteoblasts, firefly luciferase, cherry-picked (AID 624132); format: functional;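 further: firefly luciferase luminescence from reporter carrying the Shn3 3'UTR in osteoblasts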
[16] = control 3'UTR Renilla luciferase suppression, dose response, counter-screen for Shn3 inhibitor project, cell-based, Clone20-Shn3RL, cherry-picked (AID 624133); format: functional
[17] = HepG2 cell cytotoxicity, dose response, cytotoxicity control for Shn3 inhibitor project, CellTiter-Glo, cherry-picked (AID 624134); format: functional, cell-based
[18] = biological target: Paired box protein Pax-8 (Homo sapiens, UniProt Q06710); assay: inhibitors of PAX8-driven TPO luciferase reporter, dose response, RMG-I cells, cherry-pick (AID 687027); format: functional, cell-based;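 further: luciferase reporter driven by Pax8 target thyroperoxidase promoter measured by SteadyGlo luminescence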
[19] = IGROV1 ovarian cancer cell cytotoxicity, dose response, PAX8 inhibitor project, plate reader, dry powder samples (AID 743043); format: functional, cell-based; conditions: IGROV-1
[20] = P. falciparum Dd2 growth inhibitors, dose response, SYBR Green, cherry-picked samples (AID 1159567); format: functional, cell-based
[21] = HepG2 cell cytotoxicity, dose response, cytotoxicity control, cherry-picked samples (AID 1159577); format: functional, cell-based
[22] = growth inhibition of replicating M. tuberculosis, dose response, counter-screen, dry powder, IC90 (AID 651617); format: functional; conditions: Mycobacterium tuberculosis
[23] = inhibitors of non-replicating M. tuberculosis, dose response, luciferase, dry powder (AID 651620); format: functional; conditions: Mycobacterium tuberculosis
[24] = inhibitors of non-replicating M. tuberculosis, dose response, luciferase, dry powder (AID 651619); format: functional; conditions: Mycobacterium tuberculosis
[25] = P. falciparum 3D7-ScDHODH growth inhibitors, dose response, SYBR Green, dry powder samples (AID 1159570); format: functional, cell-based;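 further: parasite growth measured after 72 hours of compound exposure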
[26] = P. falciparum Dd2 growth inhibitors, dose response, SYBR Green, dry powder samples (AID 1159566); format: functional, cell-based;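 further: potency for growth inhibition with lower SYBR green DNA signal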
[27] = P. falciparum ATP4 D1247Y mutant growth inhibitors, dose response, NITD609-resistant line, SYBR Green, dry powder (AID 1159571); format: functional, cell-based;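 further: parasites synchronized at ring stage by sorbitol before testing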

Sequence of Cytochrome P450 2C9 (P11712 whole entry): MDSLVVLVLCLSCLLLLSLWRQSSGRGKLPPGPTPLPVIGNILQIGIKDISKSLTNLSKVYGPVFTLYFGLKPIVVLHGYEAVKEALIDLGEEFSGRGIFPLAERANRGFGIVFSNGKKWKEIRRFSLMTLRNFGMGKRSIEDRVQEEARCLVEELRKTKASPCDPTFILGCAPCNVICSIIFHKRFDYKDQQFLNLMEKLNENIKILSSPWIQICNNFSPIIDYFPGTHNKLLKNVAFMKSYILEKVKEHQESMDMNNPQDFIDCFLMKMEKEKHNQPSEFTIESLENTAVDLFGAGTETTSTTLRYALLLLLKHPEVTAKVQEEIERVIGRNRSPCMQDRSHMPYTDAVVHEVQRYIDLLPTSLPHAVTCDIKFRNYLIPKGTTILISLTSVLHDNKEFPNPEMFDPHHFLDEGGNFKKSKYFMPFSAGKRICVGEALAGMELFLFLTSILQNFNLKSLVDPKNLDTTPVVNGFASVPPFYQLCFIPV
Sequence of Photoreceptor-specific nuclear receptor (Q9Y5X4 whole entry): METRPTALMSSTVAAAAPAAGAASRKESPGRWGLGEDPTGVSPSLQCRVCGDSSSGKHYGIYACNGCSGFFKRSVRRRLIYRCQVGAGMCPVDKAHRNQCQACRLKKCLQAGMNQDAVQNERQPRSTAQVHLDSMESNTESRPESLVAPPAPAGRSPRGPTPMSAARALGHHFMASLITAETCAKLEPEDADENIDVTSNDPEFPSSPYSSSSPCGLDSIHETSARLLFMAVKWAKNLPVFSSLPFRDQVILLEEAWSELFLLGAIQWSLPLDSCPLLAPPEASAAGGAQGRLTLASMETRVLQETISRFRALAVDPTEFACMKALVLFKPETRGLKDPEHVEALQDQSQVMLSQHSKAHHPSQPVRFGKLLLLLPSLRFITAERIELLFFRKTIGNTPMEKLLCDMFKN
Sequence of Peroxisome proliferator-activated receptor gamma/Nuclear receptor corepressor 2 (P37231 whole entry): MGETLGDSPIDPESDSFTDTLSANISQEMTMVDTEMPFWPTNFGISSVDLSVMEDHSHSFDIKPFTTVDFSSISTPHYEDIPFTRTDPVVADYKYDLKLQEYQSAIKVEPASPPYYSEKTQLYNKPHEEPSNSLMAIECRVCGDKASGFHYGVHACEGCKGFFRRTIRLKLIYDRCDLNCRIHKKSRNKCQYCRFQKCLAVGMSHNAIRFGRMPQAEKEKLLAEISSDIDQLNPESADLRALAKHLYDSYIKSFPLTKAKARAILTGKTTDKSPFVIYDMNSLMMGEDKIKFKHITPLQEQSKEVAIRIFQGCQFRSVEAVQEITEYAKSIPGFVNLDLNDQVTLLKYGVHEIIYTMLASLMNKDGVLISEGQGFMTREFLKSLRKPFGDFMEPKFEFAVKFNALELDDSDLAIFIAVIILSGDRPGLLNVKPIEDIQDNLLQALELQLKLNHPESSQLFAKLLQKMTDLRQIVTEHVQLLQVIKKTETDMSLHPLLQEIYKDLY
Sequence of Peroxisome proliferator-activated receptor gamma/Nuclear receptor corepressor 2 (Q9Y618 whole entry): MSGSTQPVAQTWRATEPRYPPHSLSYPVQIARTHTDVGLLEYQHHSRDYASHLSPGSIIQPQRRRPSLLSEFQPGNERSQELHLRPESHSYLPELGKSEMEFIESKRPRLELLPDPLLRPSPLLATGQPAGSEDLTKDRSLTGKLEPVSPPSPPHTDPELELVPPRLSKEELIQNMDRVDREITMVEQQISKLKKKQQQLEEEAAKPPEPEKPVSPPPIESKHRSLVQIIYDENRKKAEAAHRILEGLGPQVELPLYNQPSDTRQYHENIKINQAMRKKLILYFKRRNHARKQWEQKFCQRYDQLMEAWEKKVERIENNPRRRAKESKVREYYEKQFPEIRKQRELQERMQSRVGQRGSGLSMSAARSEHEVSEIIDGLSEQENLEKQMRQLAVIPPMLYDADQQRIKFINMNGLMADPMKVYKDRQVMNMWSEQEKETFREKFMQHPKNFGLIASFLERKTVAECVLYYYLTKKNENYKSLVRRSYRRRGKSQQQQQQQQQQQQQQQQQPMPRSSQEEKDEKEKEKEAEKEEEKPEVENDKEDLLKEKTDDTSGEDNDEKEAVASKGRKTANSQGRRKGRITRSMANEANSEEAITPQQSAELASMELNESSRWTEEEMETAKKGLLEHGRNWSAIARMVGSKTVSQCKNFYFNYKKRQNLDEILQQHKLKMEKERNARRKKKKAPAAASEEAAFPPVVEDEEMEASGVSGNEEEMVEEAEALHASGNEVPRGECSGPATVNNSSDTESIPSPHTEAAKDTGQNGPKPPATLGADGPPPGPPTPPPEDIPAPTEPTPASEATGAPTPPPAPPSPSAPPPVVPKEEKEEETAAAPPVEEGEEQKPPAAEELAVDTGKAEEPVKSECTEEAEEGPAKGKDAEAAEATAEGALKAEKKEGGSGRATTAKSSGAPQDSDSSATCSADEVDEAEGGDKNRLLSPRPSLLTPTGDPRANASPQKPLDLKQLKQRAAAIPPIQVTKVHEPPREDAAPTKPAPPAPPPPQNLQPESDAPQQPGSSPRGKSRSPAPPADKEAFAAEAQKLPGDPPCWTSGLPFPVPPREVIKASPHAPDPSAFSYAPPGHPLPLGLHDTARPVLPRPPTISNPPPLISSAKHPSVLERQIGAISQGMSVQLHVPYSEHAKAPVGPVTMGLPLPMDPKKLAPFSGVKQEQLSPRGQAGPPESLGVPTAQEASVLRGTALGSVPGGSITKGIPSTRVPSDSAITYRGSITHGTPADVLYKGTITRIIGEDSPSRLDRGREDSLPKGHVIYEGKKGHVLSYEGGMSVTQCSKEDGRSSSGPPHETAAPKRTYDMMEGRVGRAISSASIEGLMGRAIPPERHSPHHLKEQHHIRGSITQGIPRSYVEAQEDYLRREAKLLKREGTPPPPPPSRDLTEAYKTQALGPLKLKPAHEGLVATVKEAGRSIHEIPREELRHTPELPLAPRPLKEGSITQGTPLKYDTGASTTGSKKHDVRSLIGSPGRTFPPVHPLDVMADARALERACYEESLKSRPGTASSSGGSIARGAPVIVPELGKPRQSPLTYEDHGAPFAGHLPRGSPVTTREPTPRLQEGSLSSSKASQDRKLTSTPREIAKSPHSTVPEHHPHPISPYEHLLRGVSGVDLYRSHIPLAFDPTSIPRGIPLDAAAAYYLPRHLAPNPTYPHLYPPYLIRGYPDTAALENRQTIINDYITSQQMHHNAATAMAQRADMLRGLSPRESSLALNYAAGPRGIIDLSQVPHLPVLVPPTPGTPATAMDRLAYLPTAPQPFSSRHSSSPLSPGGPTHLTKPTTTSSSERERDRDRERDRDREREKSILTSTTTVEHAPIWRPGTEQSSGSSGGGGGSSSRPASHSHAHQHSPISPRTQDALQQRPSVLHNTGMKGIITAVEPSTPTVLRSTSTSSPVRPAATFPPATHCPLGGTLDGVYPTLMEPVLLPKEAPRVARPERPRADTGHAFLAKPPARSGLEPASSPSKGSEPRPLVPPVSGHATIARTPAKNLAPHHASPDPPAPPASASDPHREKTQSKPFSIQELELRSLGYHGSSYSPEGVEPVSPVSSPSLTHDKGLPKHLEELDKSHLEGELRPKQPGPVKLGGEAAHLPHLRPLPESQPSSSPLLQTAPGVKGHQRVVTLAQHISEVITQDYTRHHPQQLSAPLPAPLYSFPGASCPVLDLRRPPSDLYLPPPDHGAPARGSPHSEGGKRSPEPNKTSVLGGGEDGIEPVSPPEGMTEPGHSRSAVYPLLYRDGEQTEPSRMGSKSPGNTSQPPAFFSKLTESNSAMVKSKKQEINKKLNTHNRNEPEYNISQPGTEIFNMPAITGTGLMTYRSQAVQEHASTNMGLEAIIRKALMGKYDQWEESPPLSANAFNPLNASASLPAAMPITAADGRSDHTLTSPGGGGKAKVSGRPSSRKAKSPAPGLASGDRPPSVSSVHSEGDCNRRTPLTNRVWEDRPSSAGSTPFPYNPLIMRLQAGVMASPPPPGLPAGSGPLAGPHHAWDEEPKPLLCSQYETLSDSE
Sequence of Paired box protein Pax-8 (Q06710 whole entry): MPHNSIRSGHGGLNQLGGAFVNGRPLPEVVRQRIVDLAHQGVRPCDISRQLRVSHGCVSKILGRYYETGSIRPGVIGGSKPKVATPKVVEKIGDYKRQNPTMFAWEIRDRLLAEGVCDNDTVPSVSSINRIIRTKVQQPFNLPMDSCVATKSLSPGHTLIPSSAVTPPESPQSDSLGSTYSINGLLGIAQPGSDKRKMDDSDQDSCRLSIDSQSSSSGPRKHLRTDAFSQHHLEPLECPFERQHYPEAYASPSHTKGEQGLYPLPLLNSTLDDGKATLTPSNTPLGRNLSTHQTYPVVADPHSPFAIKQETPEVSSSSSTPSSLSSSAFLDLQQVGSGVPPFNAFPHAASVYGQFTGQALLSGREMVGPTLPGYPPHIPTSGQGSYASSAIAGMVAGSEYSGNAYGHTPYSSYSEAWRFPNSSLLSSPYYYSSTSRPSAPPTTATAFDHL
Sequence of Cytochrome P450 2C19 (P33261 whole entry): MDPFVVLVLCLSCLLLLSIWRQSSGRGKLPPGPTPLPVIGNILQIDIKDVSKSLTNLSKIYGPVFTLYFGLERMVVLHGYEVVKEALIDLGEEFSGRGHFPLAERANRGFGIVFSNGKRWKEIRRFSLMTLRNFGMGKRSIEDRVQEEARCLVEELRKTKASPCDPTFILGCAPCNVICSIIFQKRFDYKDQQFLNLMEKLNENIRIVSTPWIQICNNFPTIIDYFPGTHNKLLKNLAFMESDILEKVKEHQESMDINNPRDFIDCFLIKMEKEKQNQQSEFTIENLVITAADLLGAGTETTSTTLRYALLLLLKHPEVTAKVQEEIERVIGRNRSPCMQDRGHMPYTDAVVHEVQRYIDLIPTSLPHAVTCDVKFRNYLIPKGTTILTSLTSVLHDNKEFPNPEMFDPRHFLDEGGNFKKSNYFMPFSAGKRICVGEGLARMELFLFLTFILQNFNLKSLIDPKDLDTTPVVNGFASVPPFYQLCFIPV

Fc1ccc(-c2cnn3c(-c4cccs4)ccnc23)cc1
IC50 [1]: > 67.5 µM (inactive) | EC50 [2]: > 67.5 µM (inactive)

COc1ccc2nc(O)c(-c3nnn(-c4ccc(Cl)nc4)n3)cc2c1
IC50 [3]: > 100 µM (not active) | IC50 [4]: > 100 µM (not active)

Nc1cc(S(=O)(=O)O)cc2ccc(S(=O)(=O)O)cc12
AC50 [5]: 45.1 µM (active) | AC50 [6]: > 20 µM (inactive) | AC50 [7]: 7.94 µM (inconclusive) | AC50 [8]: 7.94 µM (inconclusive)

Cc1ccc(-n2nnc(-c3cccnc3)n2)cc1
IC50 [3]: > 100 µM (not active) | IC50 [4]: > 100 µM (not active)

O=C(O)c1ccccc1SCC(=O)N1CCc2ccccc21
IC50 [1]: > 67.5 µM (inactive) | EC50 [2]: > 67.5 µM (inactive)

COC(=O)C1CCCCN1C(=O)c1cc(COc2cccc3cnccc23)on1 (centres undefined)
IC50 [9]: 1.48 µM (active) | EC50 [10]: > 29.9 µM (inactive) | IC50 [11]: 7.34 µM (active) | AC50 [12]: 3.68 µM (active)

O=C(CSc1nnc(-c2cccs2)n1-c1ccccc1)Nc1ccccc1
IC50 [13]: 5.52 µM (active) | IC50 [14]: 11.8 µM (not active)

Fc1ccc(-n2nnc(-c3cc4ccccc4nc3Cl)n2)cc1
IC50 [3]: > 100 µM (not active) | IC50 [4]: > 100 µM (not active)

COc1cc2c(cc1OC)C1C(=O)c3ccc4c(c3OC1CO2)CC(C(C)C)O4 (centres undefined)
IC50 [9]: 0.0386 µM (active) | AC50 [15]: < 0.26 µM (active) | EC50 [10]: > 29.9 µM (inactive) | IC50 [11]: 0.519 µM (active) | AC50 [16]: 5.08 µM (active) | AC50 [17]: 0.614 µM (active)

C[C@H](CO)N1C[C@H](C)[C@@H](CN(C)Cc2ccc(Cl)c(Cl)c2)Oc2ccc(NC(=O)Nc3ccc(C(F)(F)F)cc3)cc2CC1=O
AC50 [18]: 6.35 µM (active) | AC50 [19]: 54.3 µM (active) | AC50 [20]: 2.62 µM (active) | AC50 [21]: 11.8 µM (active)

Fc1ccc(CSc2nnc(-c3ccccc3)o2)cc1
IC90 [22]: 250 µM (active) | IC90 [23]: 4 µM (active) | IC90 [24]: 4 µM (active)

C/C=C/c1ccc2c(c1)[C@H]1[C@H](CCN1C(=O)c1ccc(F)cc1)[C@H](CO)N2
AC50 [25]: 1.96 µM (active) | AC50 [26]: 2.01 µM (active) | AC50 [20]: 2.79 µM (active) | AC50 [27]: 2 µM (active)

CCN(C[C@@H]1N[C@@H](CO)[C@H]1c1ccc(-c2ccc(F)cc2)cc1)C(=O)CN(C)C
AC50 [20]: 2.05 µM (active) | AC50 [21]: 8.36 µM (active)
